Data published in patent US12577231B2, “Androgen receptor PROTACS” (GlaxoSmithKline Intellectual Property Development Limited, priority 2023, dated 2026).
Positions count from the first letter of the chain named.

Assays:
[1] = biological target: T1, Androgen Receptor protein in human LnCaP cells (Homo sapiens, UniProt P10275, T878A); assay: Androgen Receptor Degradation Assay (Nano-Glo HiBiT, LnCaP cells); type: cell-based; conditions: 18 h, HiBiT-tagged AR LnCaP cells, 18 h incubation, fitted curve asymptote maximum of degradation, read-out: mean asymptote max
T1 construct: the AR gene was modified, using CRISPR/Cas9 editing, so the expressed AR protein included an 11 amino acid HiBiT tag; endogenous in cells; host or cells: clonal LnCaP derived cell line, endogenous AR gene edited by CRISPR/Cas9
T1 sequence (P10275 1-920 T878A): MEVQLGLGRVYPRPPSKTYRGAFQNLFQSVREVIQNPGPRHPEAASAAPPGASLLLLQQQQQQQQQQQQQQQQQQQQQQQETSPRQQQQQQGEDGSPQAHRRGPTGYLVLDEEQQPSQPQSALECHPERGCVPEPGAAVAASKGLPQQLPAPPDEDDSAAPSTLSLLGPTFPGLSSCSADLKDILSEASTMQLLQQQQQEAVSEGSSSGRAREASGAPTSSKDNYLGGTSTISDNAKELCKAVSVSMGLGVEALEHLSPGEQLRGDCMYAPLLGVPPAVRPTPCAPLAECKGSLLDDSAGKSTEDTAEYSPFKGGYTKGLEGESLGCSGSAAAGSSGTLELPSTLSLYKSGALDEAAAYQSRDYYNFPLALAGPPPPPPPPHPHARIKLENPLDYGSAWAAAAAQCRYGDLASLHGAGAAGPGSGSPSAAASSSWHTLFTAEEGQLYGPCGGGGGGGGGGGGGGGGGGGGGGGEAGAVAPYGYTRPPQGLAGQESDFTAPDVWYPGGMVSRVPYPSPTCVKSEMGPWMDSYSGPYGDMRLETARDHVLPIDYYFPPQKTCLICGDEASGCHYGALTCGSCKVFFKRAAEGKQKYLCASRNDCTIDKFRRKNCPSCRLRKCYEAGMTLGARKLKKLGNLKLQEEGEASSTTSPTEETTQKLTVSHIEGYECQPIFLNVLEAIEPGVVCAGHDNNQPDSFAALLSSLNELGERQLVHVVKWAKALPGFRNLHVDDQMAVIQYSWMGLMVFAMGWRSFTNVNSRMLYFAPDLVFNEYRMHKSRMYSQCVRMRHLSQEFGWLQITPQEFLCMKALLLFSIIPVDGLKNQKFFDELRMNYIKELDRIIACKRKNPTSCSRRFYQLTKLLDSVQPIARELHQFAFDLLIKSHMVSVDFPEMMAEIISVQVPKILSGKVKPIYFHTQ
Protocol: Degradation of Androgen Receptor protein in human LnCaP cells treated with PROTACs was quantified using the Nano-Glo® HiBiT Lytic Detection System (Promega) in 384 well assay plate format. A clonal LnCaP derived cell line was first established in which the AR gene was modified, using CRISPR/Cas9 editing, so the expressed AR protein included an 11 amino acid HiBiT tag at its amino-terminus. 10 mM DMSO stock solutions of PROTACs were prepared and diluted across an 11 concentration, 3 fold increment range, and 25 nL dispensed into a white opaque bottomed 384 well assay plate (Thermofisher) using an acoustic ECHO dispenser (Labcyte). Cells were grown in cell culture medium (RPMI 1640 supplemented with 15% FBS, penicillin 50U/mL and streptomycin 50 ug/mL (Thermofisher)). For the assay, cells were detached from flask and resuspended with assay medium (FluoroBrite™ DMEM supplemented with 10% heat inactivated FBS, penicillin 50U/mL and streptomycin 50 ug/mL (Thermofisher)). The cell suspension was centrifuged at 400 g for 5 min and the pellet resuspended in assay medium. 25 μL of cell suspension containing 10,000 cells was dispensed into each well of the assay plate containing a serial dilution of test compounds, which was then incubated for 18 h at 37° C./5% CO2. Control wells were included on each assay plate, with assay medium without cells being the no AR remaining 100% effect control, and cells treated with DMSO vehicle only, without PROTAC, the 0% effect control. 25 μL of Nano-Glo® HiBiT lysis buffer supplemented with LgBiT protein and Nano-Glo® substrate (Promega) was added to each well and the plate shaken at 500 rpm for 10 min at room temperature. The intensity of luminescence was measured using a PHERAstar microplate reader (BMG Labtech) and the % AR protein remaining in each well calculated by normalising the raw luminescence value to the above control wells. Parameters corresponding to the potency and efficacy estimates of the PROTACs were obtained from these normalised luminescence values using software (IDBS ActivityBase). These included the DC50 (concentration at which 50% of protein was degraded in M) and the Dmax (maximal degradation, in %) estimates. Two versions of the DC50, called relative DC50 and absolute DC50, were generated. These are the inflection point of a fitted 4 parameter sigmoidal response curve and the interpolated concentration of PROTAC corresponding to 50% of the protein being degraded, respectively. The corresponding pDC50 is reported as −log10(relative […]). The Dmax parameter was the maximum experimentally observed degradation and the asymptote max parameter the fitted response curve asymptote maximum.

[2] = biological target: T2, Androgen Receptor dual T878A/L702H mutant protein (Homo sapiens, UniProt P10275, L702H/T878A); assay: Dual Mutant (T878A/L702H) Androgen Receptor Degradation Assay (HTRF, MDA-PCa-2b cells); type: cell-based; conditions: 18 h, 18 h incubation, read-out: mean asymptote max
T2 construct: host or cells: MDA-PCa-2b
T2 sequence (P10275 1-920 L702H/T878A): T1 sequence (P10275 1-920 T878A) with L702H
Protocol: Degradation of Androgen Receptor dual T878A/L702H mutant protein in human MDA-PCa-2b (ATCC) cells treated with PROTACs was quantified using the HTRF Human Androgen Receptor Detection Kit (PerkinElmer) in 384 well assay plate format. 10 mM DMSO (Sigma-Aldrich) stock solutions of PROTACs were prepared and diluted across an 11 concentration, 3-fold increment range, and 25 nL dispensed into a white opaque bottomed 384 well assay plate (Thermofisher) using an acoustic ECHO dispenser (Labcyte). Cells were cultured in growth medium (BRFF—HPC-1 (Athena ES) supplemented with 20% FBS (Gibco), penicillin 50U/mL and streptomycin 50 μg/mL (Gibco, #15140-122)) in collagen I or poly-D-lysine coated T175 flasks (Corning, #356487 or #356539, respectively). For the assay, cells were harvested from the flask, centrifuged at 200 g for 5 min and then resuspended in the growth medium. 25 μl of cell suspension containing 10,000 cells was dispensed into each well of the assay plate containing the test compounds, which was then incubated for 18 h at 37° C./5% CO2. Control wells were included on each assay plate, with assay medium without cells being the no AR remaining 100% effect control, and cells treated with DMSO vehicle only, without PROTAC, the 0% effect control. After 18 h incubation 8 μl of supplemented lysis buffer from HTRF kit was added to each well and the plate shaken at 500 rpm for 1 h at room temperature. 8 μl of antibody mix in Detection buffer from HTRF kit was added to each well and the plate was incubated for 2 h in dark at mom temperature. The fluorescence was measured at both 620 nm and 665 nm using an excitation wavelength of 337 nm with a PHERAstar microplate reader (BMG Labtech) and the % AR protein remaining in each well was calculated by normalising the HTRF ratio (665 nm signal/620 nm signal) value to the control wells mentioned above. Parameters corresponding to the potency and efficacy estimates of the PROTACs were obtained from these normalised values using curve fitting software (IDBS ActivityBase). These included the DC50 and the Dmax estimates. Two versions of the DC50, called relative DC50 and absolute DC50, were typically generated. These are the inflection point of a fitted 4 parameter sigmoidal response curve and the interpolated concentration of PROTAC corresponding to 50% of the protein being degraded, respectively. The Dmax parameter was the maximum experimentally observed degradation and the asymptote max parameter the fitted response curve asymptote maximum.

| SMILES | Dmax [1] | Dmax [2] |
| --- | --- | --- |
| COc1cc(O[C@H]2C(C)(C)[C@H](NC(=O)c3ccc(N4CCC(CN5CCC(n6ncc7c(N8CCC(=O)NC8=O)ccnc76)CC5)CC4)c(F)c3)C2(C)C)ccc1C#N [Example 19, N-((1r,3r)-3-(4-Cyano-3-methoxyphenoxy)-2,2,4,4-tetramethylcyclobutyl)-4-(4-((4-(4-(2,4-dioxotetrahydropyrimidin-1(2H)-yl)-1H-pyrazolo[3,4-b]pyridin-1-yl)piperidin-1-yl)methyl)piperidin-1-yl)-3-fluorobenzamide] | ≥ 50% |  |
| CC1(C)[C@H](NC(=O)c2ccc(N3CCC(CN4CCC(n5ncc6c(N7CCC(=O)NC7=O)cc(F)cc65)CC4)CC3)c(F)c2)C(C)(C)[C@H]1Oc1ccc(C#N)c(Cl)c1 [Example 11, N-((1r,3r)-3-(3-Chloro-4-cyanophenoxy)-2,2,4,4-tetramethylcyclobutyl)-4-(4-((4-(4-(2,4-dioxotetrahydropyrimidin-1(2H)-yl)-6-fluoro-1H-indazol-1-yl)piperidin-1-yl)methyl)piperidin-1-yl)-3-fluorobenzamide] |  | ≥ 50% |

More lines, now with the values ahead:

| Dmax [1] | Dmax [2] | SMILES |
| --- | --- | --- |
|  | ≥ 50% | COc1cc(O[C@H]2C(C)(C)[C@H](NC(=O)c3ccc(N4CCC(CN5CCC(n6ncc7c(N8CCC(=O)NC8=O)cccc76)CC5)CC4)c(F)c3)C2(C)C)ccc1C#N [Example 21, N-((1r,3r)-3-(4-Cyano-3-methoxyphenoxy)-2,2,4,4-tetramethylcyclobutyl)-4-(4-((4-(4-(2,4-dioxotetrahydropyrimidin-1(2H)-yl)-1H-indazol-1-yl)piperidin-1-yl)methyl)piperidin-1-yl)-3-fluorobenzamide] |
|  | ≥ 50% | CCOc1cc(O[C@H]2C(C)(C)[C@H](NC(=O)c3ccc(N4CCC(CN5CCC(n6ncc7c(N8CCC(=O)NC8=O)cccc76)CC5)CC4)c(F)c3)C2(C)C)ccc1C#N [Example 4, N-((1r,3r)-3-(4-Cyano-3-ethoxyphenoxy)-2,2,4,4-tetramethylcyclobutyl)-4-(4-((4-(4-(2,4-dioxotetrahydropyrimidin-1(2H)-yl)-1H-indazol-1-yl)piperidin-1-yl)methyl)piperidin-1-yl)-3-fluorobenzamide] |
|  | ≥ 50% | CC1(C)[C@H](NC(=O)c2ccc(N3CCC(CN4CCC(n5ncc6c(N7CCC(=O)NC7=O)cccc65)CC4)CC3)c(F)c2)C(C)(C)[C@H]1Oc1ccc(C#N)c2c1CCO2 [Example 9, N-((1r,3r)-3-((7-Cyano-2,3-dihydrobenzofuran-4-yl)oxy)-2,2,4,4-tetramethylcyclobutyl)-4-(4-((4-(4-(2,4-dioxotetrahydropyrimidin-1(2H)-yl)-1H-indazol-1-yl)piperidin-1-yl)methyl)piperidin-1-yl)-3-fluorobenzamide] |
